Reference: US20240279710A1, “FLUORESCENT PROBES” (TOHOKU TECHNO ARCH CO., LTD., priority 2021, published 2024)

What was measured:
SH-SY5Y cells = assay: Live cell imaging of calpain activity in SH-SY5Y cells; format: cell-based; conditions: 5 μM probe, 10 minutes incubation, FIG. 12
Experimental: Whether or not the improvement in enzymatic reactivity between the compound of the present invention and a calpain confirmed by the above-mentioned experiment remained the same even in a cell was verified. Calpain activity imaging in SH-SY5Y cells was performed on each of Compounds 16 and 19. Specifically, the SH-SY5Y cells (American Type Culture Collection, VA, USA) were cultured in a mixed medium of Dulbecco's modified eagle medium and Ham's F-12 medium (DMEM/F-12; Thermo Fisher Scientific, Inc.) (containing 10% fetal bovine serum (FBS; Thermo Fisher Scientific, Inc., MA, USA) and 100 U/mL penicillin-100 μg/mL streptomycin (PS; Thermo Fisher Scientific, Inc.)) under the conditions of 37° C. and 5% CO2-95% air. 6×10^4 to 8×10^4 Cells/well of the cells were seeded in a multiwell plate (μ-Plate 96 Well; ibidi, Grafelfing, Germany) coated with poly-D-lysine (Thermo Fisher Scientific, Inc.) and laminin (BD Biosciences, CA, USA), and were preincubated in a culture solution. Immediately after the removal of the culture solution in the wells, 200 μL of an assay solution (a culture solution containing a 5 μM probe) was added thereto, and the cells were incubated under the conditions of 37° C. and 5% CO2-95% air. 10 Minutes after that, a bright field image and a fluorescence image were taken with a confocal microscope (LSM 710, Carl Zeiss AG, Oberkochen, Germany).
Calpain activity imaging in SH-SY5Y cells was performed on each of Compounds 20 to 23, Compound 38, and Compound 56 in the same manner as in Example 9. In the case of each of Compounds 20 to 23 and Compound 38, a bright field image and a fluorescence image were taken after 30 minutes of incubation of the cells, and in the case of Compound 56, such images were taken after 20 minutes of incubation thereof.

[1] = biological target: T1, calpain-1 from human erythrocytes (Homo sapiens, UniProt P07384); assay: Fluorescence assay with calpain-1; format: biochemical; conditions: 10 μM probe, 17.4 U/mL calpain-1, 5 mM CaCl2, 37° C., FIG. 4
T1 construct: calpain-1 from human erythrocytes; purchased Merck Millipore 208713; host or cells: human erythrocytes (natural source)
T1 sequence (P07384 1-714): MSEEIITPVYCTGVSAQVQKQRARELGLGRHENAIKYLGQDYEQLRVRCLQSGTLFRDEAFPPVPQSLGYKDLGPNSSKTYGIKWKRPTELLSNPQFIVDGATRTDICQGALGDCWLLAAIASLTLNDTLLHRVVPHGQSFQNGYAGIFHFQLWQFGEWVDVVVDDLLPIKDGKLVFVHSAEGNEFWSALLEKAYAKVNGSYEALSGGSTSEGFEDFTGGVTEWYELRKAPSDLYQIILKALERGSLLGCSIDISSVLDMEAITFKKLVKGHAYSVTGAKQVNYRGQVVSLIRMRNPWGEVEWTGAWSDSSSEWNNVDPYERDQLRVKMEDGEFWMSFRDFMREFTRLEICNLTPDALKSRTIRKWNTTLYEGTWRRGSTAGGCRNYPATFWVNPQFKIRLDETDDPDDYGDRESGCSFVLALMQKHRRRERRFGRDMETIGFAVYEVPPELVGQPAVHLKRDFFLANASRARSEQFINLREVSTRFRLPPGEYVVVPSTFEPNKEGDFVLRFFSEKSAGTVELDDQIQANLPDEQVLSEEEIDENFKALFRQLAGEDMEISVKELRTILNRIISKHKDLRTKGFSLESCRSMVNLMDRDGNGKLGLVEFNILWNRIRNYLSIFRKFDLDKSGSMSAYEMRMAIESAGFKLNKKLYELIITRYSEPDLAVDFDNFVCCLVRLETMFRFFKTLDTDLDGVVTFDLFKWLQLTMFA
T1 sequence (P04632 1-268 partner): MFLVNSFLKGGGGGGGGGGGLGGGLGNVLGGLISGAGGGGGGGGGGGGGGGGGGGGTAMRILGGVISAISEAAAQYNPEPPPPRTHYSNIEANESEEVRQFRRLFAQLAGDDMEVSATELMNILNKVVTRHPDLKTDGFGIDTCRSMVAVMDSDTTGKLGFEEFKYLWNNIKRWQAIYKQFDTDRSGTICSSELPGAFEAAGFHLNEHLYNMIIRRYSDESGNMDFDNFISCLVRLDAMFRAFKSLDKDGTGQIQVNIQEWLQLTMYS
Experimental: The fluorescence assays of Compound 19 and Compound 16 with time were performed. Specifically, 17.4 U/mL of calpain-1 and 5 mM CaCl2 were added to a 50 mM TRIS buffer (pH: 7.4, 2 mM EGTA, 2 mM DTE) containing 10 μM of each of the synthesized fluorescent probes to perform an enzyme reaction at 37° C. Each of the compounds to which calpain-1 and CaCl2 were not added was similarly subjected as a negative control to the measurement.
The fluorescence assays of Compounds 16 to 36 were similarly performed. 50 Units per milliliter (Compounds 16 and 19 to 25) or 17.4 U/mL (Compounds 16 to 18 and 26 to 36) of calpain-1 and 5 mM CaCl2 were added to a 50 mM TRIS buffer (pH: 7.4, 2 mM EGTA, 2 mM DTE) containing 10 μM of each of the synthesized fluorescent probes to perform an enzyme reaction at 37° C.
Next, similar fluorescence assays of Compounds 37, 42, 45, 48, 51, 53, 55, 57, and 59 with calpain-1 were performed. Specifically, 17.4 U/mL of calpain-1 and 5 mM CaCl2 were added to a 50 mM TRIS buffer (pH: 7.4, 2 mM EGTA, 2 mM DTE) containing 10 μM of each of the synthesized fluorescent probes to perform an enzyme reaction at 37° C. Each of the compounds to which calpain-1 was not added was used as a control.
To evaluate an influence of a R^12-L-O— group on the reactivity of each of compounds having the same amino acids with calpain-1, the fluorescence assays of Compounds 37 to 66 with calpain-1 were performed in accordance with the above-mentioned method. Specifically, 17.4 U/mL of calpain-1 and 5 mM CaCl2 were added to a 50 mM TRIS buffer (pH: 7.4, 2 mM EGTA, 2 mM DTE) containing 10 μM of each of the synthesized fluorescent probes to perform an enzyme reaction at 37° C., followed by the measurement of an increase in fluorescence intensity of each of the compounds 10 minutes after the addition of calpain-1.

In the case of `COCC(=O)N[C@@H](CC(C)C)C(=O)N[C@@H](CCSC)C(=O)Nc1ccc2c(c1)Oc1cc(N)ccc1C21OCc2ccccc21` (stereo partly shown) [Compound 19], the “calpain activity imaging in SH-SY5Y cells” value (SH-SY5Y cells; confocal microscope) is reported as “enabled the observation of calpain activity in the SH-SY5Y cells”, the “clarity of live cell imaging compared to Compound 16” value (SH-SY5Y cells) is reported as “Clear imaging” and the “change in fluorescence intensity with time by calpain-1” value ([1]; excitation 475 nm, fluorescence 500-550 nm) is reported as “functioned as a fluorescent probe for calpain-1”. The “reactivity with calpain-1 compared with Compound 16 (fluorescence with time)” value [1] was “further improved in reactivity with calpain-1”.
